“Also recorded” adds a separate entry of the source.
Columns and labels:
Wistar female rats [1] = test: Open-field test (OFT) in rats under shifted photoperiods
Method: Activity was tested in open boxes (open-fields: 100 cm wide, 100 cm long, 50 cm high) made of PVC. Animals' activity was recorded by an electronic videotracking detection system (Viewpoint, France) allowing to detect the distance travelled and the time spent in different parts of the open-field.
Light intensity was 7-10 Lux at the center of the open-fields.
Animals were individually placed for a 10-min session in the center of one quadrant of the open-field.
Parameters analyzed were: • 1) One parameter taken as an index of locomotor-exploratory behavior: • The distance travelled in the open-field. • 2) Two parameters taken as indices of anxiety behavior: • a) % Dist Cent=the percentage of distance travelled in the central 60×60 cm area of the open-field. • b) % Time cent=the percentage of time spent in the central 60×60 cm area of the open-field.
(§1) A difference was considered: • 1) Statistically significant: p≦0.05. • 2) Close-to-significant difference: 0.05<p≦0.10. • 3) Not significant: p>0.10.

[2] = 100 mpk ip 30 min; cited from earlier work
[3] = Bergman et al. 2008; cited from earlier work
OxR2 = target: T1, OxR2 (Homo sapiens, UniProt O43614); conditions: read-out: Human OxR2 FLIPR; cited from earlier work
T1 sequence (O43614 1-444): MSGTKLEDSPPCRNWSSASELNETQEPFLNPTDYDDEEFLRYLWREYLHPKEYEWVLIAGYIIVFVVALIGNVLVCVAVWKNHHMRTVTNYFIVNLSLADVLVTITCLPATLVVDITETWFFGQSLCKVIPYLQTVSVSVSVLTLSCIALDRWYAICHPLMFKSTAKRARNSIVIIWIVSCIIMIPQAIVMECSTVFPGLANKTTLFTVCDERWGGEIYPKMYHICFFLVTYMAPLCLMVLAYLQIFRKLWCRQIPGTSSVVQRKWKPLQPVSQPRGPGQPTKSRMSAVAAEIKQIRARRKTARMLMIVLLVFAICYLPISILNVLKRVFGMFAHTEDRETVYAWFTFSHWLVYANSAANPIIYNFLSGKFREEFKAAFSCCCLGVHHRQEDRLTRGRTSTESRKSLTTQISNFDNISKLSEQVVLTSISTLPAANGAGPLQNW

Wistar female rats [4] = test: Elevated-plus maze (EPM) test in rats under shifted photoperiods; conditions: EPM
Source text: Animals were subjected to the elevated-plus maze (EPM) test only once during the period of the study: at the 43th, 44th or 45th days of treatment (see Table 2).
The apparatus consisted of a plus-shaped maze, elevated 50 cm from the floor, with two opposite open arms, 50×10 cm, crossed at right angles by two arms of the same dimensions, but enclosed by 40-cm-high black opaque walls with an open roof. In addition a 1-cm-high edge made of Plexiglas surrounded the open arms to avoid falls.
Light intensity was 10 Lux at the level of open arms.
The experiment was recorded with a camcorder, placed 1.5 m above the maze and connected to a screen, allowing the experimenter to watch the test online.
Animals were individually placed for a 5-min session in the center of the plus-maze. The number of arm entries and the time spent in arms were recorded. An arm entry is defined as all four paws into the arm.
Other parameters were recorded: the time spent in open arms, the number of open arm entries, the time spent in enclosed arms, the number of enclosed arm entries and the time spent in the center of the maze.
1) Enclosed arm entries: entries into the protected arms of the EPM
as §1

Wistar female rats [5] = test: Forced swimming test (FST) in rats under shifted photoperiods; conditions: TCS 1102 20 mg/kg IP
Method: Animals of CL and LL groups received the vehicles in the same conditions.
The same animals were tested by the same experimenter on the two FST sessions. The same proportion of animals of each group was tested by each experimenter.
The apparatus used for the experiment consisted of glass cylinders (64 cm high, 25 cm diameter) filled with 30 cm 25° C. water. The experiment was recorded with a camcorder, placed in front of the glass cylinder and connected to a screen, allowing the experimenter to watch the test online.
Light intensity was 15-20 Lux at the level of glass cylinders.
The behavior of the rat was measured on the second trial.
Behavior was classified as one of three behaviors: • 1) Immobility, defined as floating in the water without struggling and using only small movements to keep the head above water. • 2) Swimming, defined as moving limbs in an active manner, more than required to keep the head above water and causing movement among quadrants of the cylinder. • 3) Climbing, defined as making active movements with forepaws moving in and out of the water, usually directed against the side of the cylinder. Parameters analyzed were:
1) Imo=the immobility time.
2) Swm=the swimming time.
3) Clb=the climbing time.
A depressive-like profile is indicated by an increase of the immobility time and a decrease of either the swimming time or the climbing time. Conversely, an antidepressant-like effect is indicated by a decrease of the immobility time and an increase of either the swimming time or the climbing time.
as §1

Wistar female rats [6] = test: Symptoms noticed after administration; assay type: in vivo, rat; conditions: also seen with 20% DMSO vehicle; stated to be induced by DMSO
Source text: No other symptom was noticed.

P-gp = P-gp (Homo sapiens, UniProt P08183); conditions: cited from earlier work
Chain of P-gp (P08183 whole entry): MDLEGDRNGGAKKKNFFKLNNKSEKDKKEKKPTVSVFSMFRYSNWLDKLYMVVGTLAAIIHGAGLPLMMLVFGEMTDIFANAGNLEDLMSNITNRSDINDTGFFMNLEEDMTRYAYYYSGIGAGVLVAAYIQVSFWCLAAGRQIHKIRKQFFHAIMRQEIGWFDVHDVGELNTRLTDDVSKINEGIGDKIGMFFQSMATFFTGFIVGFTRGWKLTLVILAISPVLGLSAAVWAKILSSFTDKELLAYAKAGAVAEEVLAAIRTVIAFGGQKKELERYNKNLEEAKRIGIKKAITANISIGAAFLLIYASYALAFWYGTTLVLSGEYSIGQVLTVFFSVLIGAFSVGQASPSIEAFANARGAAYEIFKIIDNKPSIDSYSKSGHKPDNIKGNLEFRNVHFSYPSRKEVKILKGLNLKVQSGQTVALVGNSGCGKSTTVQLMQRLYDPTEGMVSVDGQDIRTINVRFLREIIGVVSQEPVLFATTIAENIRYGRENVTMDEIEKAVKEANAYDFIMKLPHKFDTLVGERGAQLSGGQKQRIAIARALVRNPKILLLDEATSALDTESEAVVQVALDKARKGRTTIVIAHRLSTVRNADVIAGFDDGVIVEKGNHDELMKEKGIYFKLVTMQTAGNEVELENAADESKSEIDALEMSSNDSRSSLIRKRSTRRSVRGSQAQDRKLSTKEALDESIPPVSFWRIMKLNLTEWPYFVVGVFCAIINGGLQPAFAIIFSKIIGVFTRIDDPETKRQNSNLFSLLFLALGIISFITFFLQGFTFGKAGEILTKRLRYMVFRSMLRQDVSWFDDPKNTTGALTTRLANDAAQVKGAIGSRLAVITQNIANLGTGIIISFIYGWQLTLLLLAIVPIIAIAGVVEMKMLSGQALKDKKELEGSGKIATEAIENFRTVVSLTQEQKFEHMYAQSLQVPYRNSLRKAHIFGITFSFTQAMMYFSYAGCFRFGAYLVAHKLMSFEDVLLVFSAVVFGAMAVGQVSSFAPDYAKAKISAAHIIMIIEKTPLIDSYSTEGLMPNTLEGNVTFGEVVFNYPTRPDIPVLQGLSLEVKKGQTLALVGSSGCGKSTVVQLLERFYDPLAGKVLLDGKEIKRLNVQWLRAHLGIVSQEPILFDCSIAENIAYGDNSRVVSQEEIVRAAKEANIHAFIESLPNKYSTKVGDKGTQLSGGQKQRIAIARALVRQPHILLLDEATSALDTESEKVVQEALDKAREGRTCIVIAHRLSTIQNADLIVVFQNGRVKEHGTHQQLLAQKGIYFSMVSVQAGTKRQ

[7] = Body weight / growth rate in rats under shifted photoperiods; conditions: for growth rate: SL-TCS vs SL-Veh, IP (FIGS. 25, 27); for Body weight in percent of initial body weight (d−4): short light (SL) rats, mean
Method: Rats were weighed three times a week in order to examine the effect of L/D changes and the effects of treatments on the body weight.
Animals' body weight was recorded three days per week. The body weight on day d-4 was considered as the initial body weight.
Initial body weight (BW) between recorded on day d-4, before the initiation of L/D change analyzed by 1-factor ANOVA and Student's t-test.
Therefore, the following analyses were performed on the BW expressed in percentage of the initial BW. • 2) Effect of L/D condition:
The BW expressed in percentage of the initial BW was compared between by ANOVA for repeated measures (from day dl to day d54): • a) On C-Veh, LL-Veh and SL-Veh groups: overall effect. • b) On C-Veh and LL-Veh groups: effect of LL. • c) On C-Veh and SL-Veh groups: effect of SL. • d) On LL-Veh and SL-Veh groups: difference LL vs. SL. • 3) Effect of vehicle:

[8] = OFT first session, SL-TCS vs SL-DMSO, 20 mg/kg IP
[9] = OFT first session, Short Light rats, TCS 20 mg/kg IP daily, group mean
[10] = OFT first session, TCS 1102 20 mg/kg IP
[11] = OFT reanalysis, SL rats, IP TCS 1102
[12] = SL-TCS vs SL-DMSO, 20 mg/kg IP, 20 mg/kg
[13] = short light (SL) rats, group mean, DMSO vehicle comparison groups

## Cn1c(SCC(=O)N2CCC[C@H]2C(=O)Nc2ccccc2-c2ccccc2)nc2ccccc21 [TCS 1102]
Wistar female rats [1]; [8]
  effect on the % Time Center: Tended to increase
  effect on the Distance: Did not significantly modify
Wistar female rats [1]; OFT first session, SL-TCS vs SL-DMSO, 20 mg/kg IP, 20 mg/kg
  effect on the % Dist Center: reduced the decrease; also recorded: Increased
Wistar female rats [1]; [9]
  % Dist Cent: 11.3%
  % Time Cent: 7.4%
  Distance travelled: 8505.8 cm
Wistar female rats [1]; [10]
  anxiogenic-like effect of short light duration: reduced the anxiogenic-like effect of short light duration
  motor exploratory activity: did not modify
Wistar female rats [1]; [11]
  another parameter of exploratory behavior (FIGS. 5 and 6, hyper center): similarly treated
  exploratory behaviors (FIG. 4): treated with statistical significance
  thigmotactic anxiety-like behaviors (FIG. 3): treated fully and with statistical significance
[2]
  Brain level: 2370 nM
  CSF level: 43 nM
  plasma level: 3500 nM
[3]
  rat in vivo half life: around 0.3 hours
OxR2
  IC50: 4 nM
Wistar female rats [4]; SL-TCS vs SL-DMSO, 20 mg/kg IP
  effect on the AE: Did not significantly modify
Wistar female rats [4]; [12]
  effect on the % OAE: Tended to reduce the decrease; also recorded: Increased
  effect on the % TOA: Did not significantly reduce the decrease; also recorded: Did not significantly modify
Wistar female rats [4]; TCS 1102 20 mg/kg IP
  anxiogenic-like effect of short light duration: tended to reduce
Wistar female rats [4]; [13]
  Number of arm entries (AE): 16.8
  Percentage of open arm entries (% OAE): 32.0%
  Percentage of time spent in open arms (% TOA): 23.1%
Wistar female rats [5]
  depression-related behavior in the FST: no significant effect
Wistar female rats [6]
  symptoms after IP injection: Abdominal contractions lasting 10-20 sec
P-gp
  P-gp (B to A/A to B): 1.4
[7]
  growth rate: consistently increased the growth rate
[7]; listed as TCS
  growth rate: lessened the SL-induced low growth rate
[7]; TCS 1102 20 mg/kg IP, SL rats
  body weight: no significant effect
[7]; d29-t1, during treatment
  Body weight in percent of initial body weight (d−4): 162.1%
[7]; d31-t3, during treatment
  Body weight in percent of initial body weight (d−4): 161.0%
[7]; d33-t5, during treatment
  Body weight in percent of initial body weight (d−4): 165.8%
[7]; d36-t8, during treatment
  Body weight in percent of initial body weight (d−4): 168.2%
[7]; d38-t10, during treatment
  Body weight in percent of initial body weight (d−4): 169.5%
[7]; d40-t12, during treatment
  Body weight in percent of initial body weight (d−4): 168.9%
[7]; d43-t15, during treatment
  Body weight in percent of initial body weight (d−4): 171.4%
[7]; d45-t17, during treatment
  Body weight in percent of initial body weight (d−4): 172.9%
[7]; d47-t19, during treatment
  Body weight in percent of initial body weight (d−4): 173.2%
[7]; d50-t22, during treatment
  Body weight in percent of initial body weight (d−4): 173.9%
[7]; d52-t24, during treatment
  Body weight in percent of initial body weight (d−4): 176.9%
[7]; d54-t26, during treatment
  Body weight in percent of initial body weight (d−4): 174.7%

From US20160051533A1, “DIAGNOSIS AND PHARMACOLOGICAL TREATMENT OF SEASONAL AFFECTIVE DISORDER AND SYMPTOMS OF SEASONALITY” (Ladd Research LLC, priority 2014, published 2016)
